One assay addresses thyroid receptor (TR). Put plainly: Receptor binding assay with TR from rat liver nuclei and [125I]T3. The following applies: TR from rat liver nuclei, 1 nM [125I]T3, overnight at 4° C.; read-out: App.Kd. As for the experimental part:
Baxter, and […]. […] The apparent Kd's are calculated using the method described by […]

A further assay relates to TR binding to RIP-140. As to the kind of experiment: RIP-140 coactivation assay (35S-RIP-140 binding to liganded TR). Type of assay: biochemical. Also on record: key: +: RIP-140 Binding; −: RIP-140 Binding. As for the experimental part:
To test the ability of TR ligands to activate the binding of TR to the nuclear activation protein RIP-140 (a nuclear protein that can bind to nuclear receptors, such as the estrogen receptor), a TR ligand is liganded to TR and then incubated with RIP-140 as described in V. Cavailles, et al., EMBO J., 14(15):3741-3751 (1995), which is incorporated by reference herein. In this assay, 35S-RIP-140 protein binds to liganded TR but not unliganded TR.

For assay [1], the system named is thyroid hormone receptors (TRs). Put plainly: CAT reporter gene activation in cultured cells. Type of assay: cell-based. To be noted: U-937. How it is done:
To test TR activation of transcription in a cellular environment, TR ligands are assayed for their ability to activate a reporter gene, chloramphenicol transferase (“CAT”), which has a TR DNA binding sequence operatively linked to it. Either GC or […] cells (available from the ATCC) can be used, respectively). In such assays, a TR ligand crosses the cell membrane, binds to the TR, and activates the TR, which in turn activates gene transcription of the CAT by binding the TR DNA binding region upstream of the CAT gene. The effective concentration for half maximal gene activation (EC50) is determined by assaying CAT gene activation at various concentrations as described herein and in the literature.
After electroporation, cells are pooled in growth medium (RPMI with 10% charcoal-treated, hormone stripped, newborn bovine serum), plated in 6-well dishes and treated with either ethanol or hormone. CAT activity is determined 24 hours later as described D. C. Leitman, R. C.
(Reporter assays use an easily measured gene product as a stand-in for the process of interest.)

For assay [2], the system named is TR. As to the kind of experiment: Receptor binding affinity stated in the structure discussion.
The subject of assay [3] is TR. To be noted: cited from earlier work.
The next assay concerns the target T1, human TR-β LBD (Homo sapiens, UniProt P10828).
T1 sequence (P10828 217-461 limits assumed): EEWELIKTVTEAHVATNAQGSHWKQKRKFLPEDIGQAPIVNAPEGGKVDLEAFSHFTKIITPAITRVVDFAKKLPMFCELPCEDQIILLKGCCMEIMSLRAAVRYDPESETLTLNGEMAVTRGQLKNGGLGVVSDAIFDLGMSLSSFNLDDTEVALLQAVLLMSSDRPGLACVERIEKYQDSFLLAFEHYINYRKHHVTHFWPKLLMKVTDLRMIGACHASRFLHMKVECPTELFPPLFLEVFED
As to the kind of experiment: Competition for [125I]T3 binding, native TR-β. The following applies: read-out: Binding Affinity, Native TR-β. As for the experimental part:
Assays are performed in duplicate.
The following assays residues involved in selective binding among TR isoforms.

The target in a further assay is T2, human TR-α LBD (Homo sapiens, UniProt P10827).
T2 sequence (P10827 163-410 isoform P10827-2 limits assumed): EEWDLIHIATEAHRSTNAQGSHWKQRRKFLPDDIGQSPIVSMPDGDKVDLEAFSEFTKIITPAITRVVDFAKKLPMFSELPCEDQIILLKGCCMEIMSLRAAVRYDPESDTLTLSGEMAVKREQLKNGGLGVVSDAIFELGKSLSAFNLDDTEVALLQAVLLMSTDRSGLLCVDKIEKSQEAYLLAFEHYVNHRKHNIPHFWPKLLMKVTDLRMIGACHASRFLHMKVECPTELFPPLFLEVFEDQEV
Put plainly: Competition for [125I]T3 binding, native TR-α. To be noted: read-out: Binding Affinity, Native TR-α; competition with 1 nM [125I]T3.

Another assay deals with T3, TR-α (Homo sapiens, UniProt P10827).
T3 sequence (P10827 1-410 isoform P10827-2): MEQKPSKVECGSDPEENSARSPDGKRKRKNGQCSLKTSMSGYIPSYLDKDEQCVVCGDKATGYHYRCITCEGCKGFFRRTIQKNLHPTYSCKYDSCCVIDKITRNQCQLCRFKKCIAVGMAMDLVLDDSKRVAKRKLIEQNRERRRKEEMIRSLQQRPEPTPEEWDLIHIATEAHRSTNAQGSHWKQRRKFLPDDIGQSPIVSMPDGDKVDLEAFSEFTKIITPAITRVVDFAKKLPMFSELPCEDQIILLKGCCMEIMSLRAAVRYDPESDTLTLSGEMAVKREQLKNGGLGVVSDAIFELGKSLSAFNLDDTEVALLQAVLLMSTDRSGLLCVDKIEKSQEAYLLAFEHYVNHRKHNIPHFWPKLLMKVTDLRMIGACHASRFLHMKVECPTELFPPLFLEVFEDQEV
Put plainly: Binding to TR isoform TR-α. An excerpt: Assays for determining selective binding to the TR-α or TR-β LBD can include reporter assays, as described herein.

For a further assay, the target named is T4, TR-β (Homo sapiens, UniProt P10828).
T4 sequence (P10828 1-461): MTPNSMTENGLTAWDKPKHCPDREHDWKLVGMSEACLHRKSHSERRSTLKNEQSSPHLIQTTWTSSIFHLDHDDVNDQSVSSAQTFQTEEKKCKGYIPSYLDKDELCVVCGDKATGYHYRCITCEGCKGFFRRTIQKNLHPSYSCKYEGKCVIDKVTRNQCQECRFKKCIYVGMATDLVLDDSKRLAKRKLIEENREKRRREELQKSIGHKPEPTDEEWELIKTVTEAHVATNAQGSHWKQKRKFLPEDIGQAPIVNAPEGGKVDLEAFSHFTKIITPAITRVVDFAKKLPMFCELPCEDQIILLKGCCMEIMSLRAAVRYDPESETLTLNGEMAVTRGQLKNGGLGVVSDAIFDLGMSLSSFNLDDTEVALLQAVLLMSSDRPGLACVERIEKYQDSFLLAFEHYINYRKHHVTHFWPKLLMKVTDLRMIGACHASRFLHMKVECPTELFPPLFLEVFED
As to the kind of experiment: Binding to TR isoform TR-β. How it is done:
3,5-dibromo-4-(3′,5′-diisopropyl-4′-hydroxyphenoxy)Benzoic Acid is a TR-α Selective Synthetic Ligand. [drawing 4] 3,5-dibromo-4-(3′,5′-diisopropyl-4′-hydroxyphenoxy)benzoic acid (Compound 11), the structure of which is drawn above, is assayed for binding to the two different isoforms of the TR, TR-α and TR-β. […] Assays for determining selective binding to the TR-α or TR-β LBD can include reporter assays, as described herein. See also Hollenberg, et al., J. Biol. Chem., (1995) 270(24):14274-14280.

[4] abbreviates: half maximal CAT gene activation, GC or U937 cells, read-out: EC50.

Where two headings read alike, the source gives them in different places.

As a reminder, the EC50 is the concentration that produces a half-maximal response. What is called IC50 is the point on the concentration scale where inhibition reaches its midpoint.

Consider `CCCCCCCCCCCCCCCCC(=O)N[C@@H](Cc1cc(I)c(Oc2ccc(O)c(I)c2)c(I)c1)C(=O)O` [TS2], for which the Kd at thyroid receptor (TR) came out at 1400 nM.

For the compound `O=C(N[C@@H](Cc1cc(I)c(Oc2ccc(O)c(I)c2)c(I)c1)C(=O)O)OCC1c2ccccc2-c2ccccc21` [TS3], the Kd at thyroid receptor (TR) came to 4 nM. In addition, in the assay with TR binding to RIP-140, the “Coactivation Assay RIP-140” value is reported as “+”. The concentration giving a half-maximal response (EC50) in assay [1] (setting [4]) was 10 nM.

`O=C(O)Cc1cc(I)c(Oc2ccc(O)c(I)c2)c(I)c1` [Triac, 3,5,3′-triiodothyroacetic acid]: in the assay with TR [2], the “affinity for the alpha versus beta isoforms” value was “equal affinity”. The “binding affinity compared with T3” value in the assay with TR [3] was “equal to that of T3”.

Turning to `O=C(N[C@@H](Cc1cc(I)c(Oc2ccc(O)c(I)c2)c(I)c1)C(=O)O)C(c1ccccc1)c1ccccc1` [TS1], the Kd on thyroid receptor (TR) is 4 nM. Besides, the “Coactivation Assay RIP-140” value in the assay with TR binding to RIP-140 was “+”. Also, the EC50 in assay [1] (setting [4]) is 100 nM.

Regarding `Cc1cc(C[C@H](N)C(=O)O)cc(C)c1Oc1ccc(O)c(C(C)C)c1` [Dimit, 3,5-dimethyl-3′-isopropylthyronine], the Kd on human TR-β LBD is 8 nM; at human TR-α LBD, 6 nM.

Turning to `CC(C)c1cc(Oc2c(I)cc(CC(N)C(=O)O)cc2I)ccc1O` (stereo not shown) [TS9, reference compound], the “Coactivation Assay RIP-140” value in the assay on TR binding to RIP-140 was “+”.

Regarding `N[C@@H](Cc1cc(I)c(Oc2cc(I)c(O)c(I)c2)c(I)c1)C(=O)O` [Compound T4, 3,5,3′,5′-tetraiodo-L-thyronine, reference compound], the “Coactivation Assay RIP-140” value in the assay with TR binding to RIP-140 is “+”. In addition, the EC50 in assay [1] (setting [4]) was 1 nM. For the same compound, the “affinity for the receptor as % of the affinity of T3” value with TR [3] is recorded as 2%.

For `CC(C)c1cc(Oc2c(Br)cc(C(=O)O)cc2Br)cc(C(C)C)c1O` [Compound 11, 3,5-dibromo-4-(3′,5′-diisopropyl-4′-hydroxyphenoxy)benzoic acid], the IC50 is 1600 nM at TR-α and 910 nM at TR-β.

For `CC(C)c1cc(Oc2c(Br)cc(C[C@H](N)C(=O)O)cc2Br)ccc1O` [IpBr2, 3,5-dibromo-3′-isopropylthyronine], the Kd on human TR-α LBD was found to be 0.017 nM.

For `CC(C)(C)OC(=O)NC(Cc1cc(I)c(Oc2ccc(O)cc2)c(I)c1)C(=O)O` (stereo not shown) [TS5], at thyroid receptor (TR), the Kd is 220 nM. Further, the “Coactivation Assay RIP-140” value in the assay with TR binding to RIP-140 is recorded as “+”. Moreover, in assay [1] (setting [4]), the EC50 is 1000 nM.

As to `N[C@@H](Cc1cc(I)c(Oc2ccc(O)c(I)c2)c(I)c1)C(=O)O` [Compound T3, 3,5,3′-triiodothyronine, reference compound], the “Coactivation Assay RIP-140” value in the assay on TR binding to RIP-140 is “+”. This compound also showed a concentration giving a half-maximal response (EC50) in assay [1] of 0.1 nM.

Take `CC(C)(C)OC(=O)N[C@@H](Cc1cc(I)c(Oc2ccc(O)c(I)c2)c(I)c1)C(=O)O` [TS4]: the Kd on thyroid receptor (TR) came to 8 nM. Also, the “Coactivation Assay RIP-140” value with TR binding to RIP-140 was “+”.

Source of the values: patent publication US20070027215A1, “Nuclear receptor ligands and ligand binding domains” (The Regents of the University of California, priority 1995, published 2007).
